The values that follow come from patent publication US10865222B2, “Neisseria gonorrhoeae therapeutic based on CMP-nonulosonate sugars” (priority 2014, dated 2020).

“Also recorded” adds a separate entry of the source.

In assay [1] the test system is N. gonorrhoeae F62 ΔIgtD. It counts as cell-based. The arrangement: key to Serum resistance: high: >100% survival in 10% serum; low: >100% survival in 3.3% serum and <10% survival in 10% serum. Conditions: for bacterial survival / serum resistance: all serum concentrations tested (10, 6.7, 3.3%), 30 μM; for serum resistance mediated by CMP-Neu5Ac: analogue 20, 2 or 0.2 μg/ml added 15 min after CMP-Neu5Ac 20 μg/ml, grown 2 h; for killing of bacteria made serum resistant by CMP-Neu5Ac: analogue added 120 min after CMP-Neu5Ac, data not shown; for Serum resistance: summary Table 1. The method, then: FIG. 2. […] N. gonorrhoeae F62 ΔIgtD was grown in media alone (no CMP-sialic acid added), or media that contained 20 μg/ml (˜30 μM) of each of the indicated CMP-nonulosonates. Resistance of bacteria to complement-dependent killing in the presence of 3.3%, 6.7% or 10% normal human serum (NHS) was measured in serum bactericidal assays.
FIG. 5. […] N. gonorrhoeae F62 ΔIgtD was suspended in media containing 20 μg/ml (˜30 μM) CMP-Neu5Ac. Following 15 min of incubation at 37° C., CMP-Neu5Ac9Az or CMP-Leg5Ac7Ac (at concentrations of 20, 2 or 0.2 μg/ml final) were added and bacteria were incubated for 2 h. Serum bactericidal assays were then performed using 3.3% (solid black bars) or 10% (hatched bars) NHS. Controls included bacteria in media that lacked any CMP-nonulosonate, or bacteria that were incubated in CMP-Neu5Ac only. Y-axis, % survival.
We next determined the effects of incorporation of the CMP salts of five structural analogues of Neu5Ac (Neu5Gc, Neu5Ac9Ac, Neu5Ac9Az, Neu5Gc8Me and Leg5Ac7Ac) on the ability of N. gonorrhoeae F62 ΔIgtD to resist complement-dependent killing by normal human serum at concentrations of 10, 6.7 or 3.3%. Bacteria were grown either in media alone, or media supplemented with 30 μM (˜20 μg/ml) of each of the CMP-nonulosonates.
The ability of two of the CMP-nonulosonates, CMP-Neu5Ac9Az and CMP-Leg5Ac7Ac, to counter the ability of CMP-Neu5Ac to enhance serum resistance of N. gonorrrhoeae was then examined. The analogues were added at concentrations of 20, 2 or 0.2 μg/ml to growth media 15 min after the addition of CMP-Neu5Ac (20 μg/ml) to F62 ΔIgtD.
Serum bactericidal assays were performed as described previously (11). Bacteria harvested from an overnight culture on chocolate agar plates were grown in liquid media containing the specified concentration of CMP-nonulosonate as specified for each experiment. Approximately 2000 CFU of F62 ΔIgtD were incubated with NHS (concentration specified for each experiment). The final reaction volumes were maintained at 150 μl. […]

In assay [2] the test system is N. gonorrhoeae F62 ΔIgtD. The assay is described as follows: Flow cytometry for factor H binding to bacteria. It counts as cell-based. The arrangement: key to fH binding: minimal: compared to unsialylated gonococci. Conditions: for fH binding facilitated by CMP-Neu5Ac: analogue added within 2 min of CMP-Neu5Ac 20 μg/ml. As to the method: FIG. 3. Effects of LOS modification with various nonulosonate analogues on fH binding to N. gonorrhoeae. N. gonorrhoeae F62 ΔIgtD was grown in media alone, or media supplemented with 20 μg/ml (˜30 μM) of each of the indicated CMP-nonulosonates. Binding of bacteria to fH (10 μg/ml) was measured by flow cytometry using polyclonal goat anti-human fH. The control indicates reaction mixtures that lacked fH. Y-axis, median fluorescence of fH binding. The mean (SD) of 2 independent repeats is shown.
FIG. 7. […] A. N. gonorrhoeae F62 ΔIgtD was incubated in media containing CMP-Neu5Ac (20 μg/ml), followed […] by the addition of either CMP-Neu5Ac9Az or CMP-Leg5Ac7Ac (20, 2 or 0.2 μg/ml). Bacteria were grown for 2 h and fH binding detected by FACS using polyclonal goat anti-human fH. The Y-axis represents median fluorescence. The mean (SEM) of two independent observations is shown. B. Development of serum resistance lags behind fH binding when measured as a function of time of exposure of bacteria to CMP-Neu5Ac. CMP-Neu5Ac (20 μg/ml) was added to media containing F62 ΔIgtD and bacteria were taken at the time points indicated on the X-axis and assayed for fH binding by FACS with anti-fH mAb 90× (left Y-axis; median fluorescence (SEM)), or tested for its ability to resist killing by 10% NHS (right Y-axis; percent survival). The data represent 2-3 independent experiments. C. Representative histograms of a fH binding FACS experiment.
The addition of a terminal Neu5Ac residue to LNT-expressing LOS enhances binding of the alternative pathway inhibitor, factor H, which contributes to the ability of sialylated gonococci to resist killing by complement (7). fH binding to N. gonorrhoeae F62 ΔIgtD grown in the presence of each of the CMP-nonulosonates (20 μg/ml or 30 μM) was examined (FIG. 3). […] Reducing the CMP-nonulosonate concentrations in growth media to 2 μg/ml (3 μM) yielded similar fH binding results (FIG. 9B). Further, modification of LOS with Neu5Ac or Neu5Gc yielded similar amounts of fH binding over CMP-sialic acid concentrations ranging from 0.5 to 4 μg/ml, with near maximal fH binding observed even at the lowest concentration tested (FIG. 9C).
fH binding to bacteria was performed using flow cytometry as described previously (14). Briefly, bacteria (F62 ΔIgtD) were harvested from chocolate agar plates and grown in liquid media that contained the specified concentration of the CMP-nonulosonate as described above. Bacteria were then washed with Hanks Balanced Salt Solution (HBSS) containing 1 mM Ca^2+ and 1 mM Mg^2+ (HBSS^++) and incubated with fH purified from human plasma (Complement Technology, Inc.; concentration specified for each experiment). Bound fH was detected using either anti-fH mAb (Quidel, catalog no. A254 (mAb 90×)) or goat anti-human fH, followed by FITC conjugated anti-mouse IgG or anti-goat IgG, respectively (Sigma); both Abs had similar performance characteristics. All reaction mixtures were carried out in HBSS^++/1% BSA in a final volume of 50 μl. Flow cytometry was performed using a FACSCalibur instrument (Becton Dickinson) and data were analyzed using FlowJo (version 7.2.5; Tree Star, Inc.).

[3] abbreviates: CMP-nonulosonate 20 μg/ml or 30 μM, vs unsialylated F62 ΔIgtD.

Turning to “5,7-diacetamido-3,5,7,9-tetradeoxy-D-glycero-D-galacto-nonulosonic acid [CMP-Leg5Ac7Ac]”, in the assay with N. gonorrhoeae F62 ΔIgtD [1], the “bacterial survival / serum resistance” value is listed as “did not increase bacterial survival”, the “serum resistance mediated by CMP-Neu5Ac” value was “blocked serum resistance; also recorded: completely blocked”, the “killing of bacteria made serum resistant by CMP-Neu5Ac” value is “did not induce any killing” and the Serum resistance entry is on record as “none”. The “fH binding facilitated by CMP-Neu5Ac” value in the assay on N. gonorrhoeae F62 ΔIgtD [2] is given as “did not interfere with fH binding”. Besides, the fH binding entry with N. gonorrhoeae F62 ΔIgtD [2] (summary Table 1) was “minimal”.
Turning to `COC(CO)C(O)C1OC(OP(=O)(O)OCC2OC(n3ccc(N)nc3=O)C(O)C2O)(C(=O)O)CC(O)C1NC(=O)CO` [CMP-Neu5Gc8Me, CMP-5-hydroxyacetamido-8-O-methyl-3,5-dideoxy-D-glycero-D-galacto-nonulosonic acid], the Serum resistance entry in the assay with N. gonorrhoeae F62 ΔIgtD [1] is listed as “low”. The fH binding entry with N. gonorrhoeae F62 ΔIgtD [2] (summary Table 1) is on record as “minimal”.
Consider `CC(=O)N[C@H]1[C@H]([C@H](O)[C@H](O)CN=[N+]=[N-])OC(OP(=O)(O)OC[C@H]2O[C@@H](n3ccc(N)nc3=O)[C@H](O)[C@@H]2O)(C(=O)O)C[C@@H]1O` (stereo partly drawn) [CMP-Neu5Ac9Az, CMP-5-acetamido-9-azido-3,5,9-trideoxy-D-glycero-D-galacto-nonulosonic acid], for which, in the assay with N. gonorrhoeae F62 ΔIgtD [1], the “bacterial survival / serum resistance” value was “did not increase bacterial survival”, the “serum resistance mediated by CMP-Neu5Ac” value is “blocked serum resistance; also recorded: completely blocked”, the “killing of bacteria made serum resistant by CMP-Neu5Ac” value is on record as “did not induce any killing” and the Serum resistance result is given as “none”. For the same compound, the “fH binding facilitated by CMP-Neu5Ac” value in the assay with N. gonorrhoeae F62 ΔIgtD [2] is reported as “did not interfere with fH binding”. The fH binding entry with N. gonorrhoeae F62 ΔIgtD [2] (summary Table 1) is given as “minimal^A”.
Take `CC(=O)NC1C(O)CC(OP(=O)(O)OCC2OC(n3ccc(N)nc3=O)C(O)C2O)(C(=O)O)OC1C(O)C(O)CO` [CMP-Neu5Ac, CMP-5-acetamido-3,5-dideoxy-D-glycero-D-galacto-nonulosonic acid, reference compound]: in the assay with N. gonorrhoeae F62 ΔIgtD [1] (CMP-Neu5Ac 20 μg/ml, 32 min exposure, 10% NHS), the bacterial survival is recorded as ~42%. The “resistance to 10% serum” value in the assay with N. gonorrhoeae F62 ΔIgtD [1] (CMP-nonulosonate 3 μM (~2 μg/ml), 10% serum) is given as “conferred resistance”. In the assay with N. gonorrhoeae F62 ΔIgtD [1], the Serum resistance entry is recorded as “high^B (>100% survival in 10% serum)”. Moreover, the “fH binding as function of time of exposure” value in the assay on N. gonorrhoeae F62 ΔIgtD [2] (CMP-Neu5Ac 20 μg/ml, 2 min) is “barely any fH binding above control levels”; with N. gonorrhoeae F62 ΔIgtD [2] (CMP-Neu5Ac 20 μg/ml, by 32 min) it was “near maximal binding”. In addition, the “fH binding, % of maximal binding” value in the assay on N. gonorrhoeae F62 ΔIgtD [2] (CMP-Neu5Ac 20 μg/ml, by 16 min) is ~70%. Moreover, the fH binding result is “Maximal” in the assay with N. gonorrhoeae F62 ΔIgtD [2] (setting [3]); “near maximal” with N. gonorrhoeae F62 ΔIgtD [2] (CMP-sialic acid 0.5 to 4 μg/ml, lowest concentration tested); “high” in the assay on N. gonorrhoeae F62 ΔIgtD [2] (summary Table 1).
As to `CC(=O)N[C@H]1[C@H]([C@H](O)[C@H](O)COC(C)=O)OC(OP(=O)(O)OC[C@H]2O[C@@H](n3ccc(N)nc3=O)[C@H](O)[C@@H]2O)(C(=O)O)C[C@@H]1O` (stereo partly drawn) [CMP-Neu5Ac9Ac, CMP-5-acetamido-9-O-acetyl-3,5-dideoxy-D-glycero-D-galacto-nonulosonic acid], in the assay on N. gonorrhoeae F62 ΔIgtD [1], the Serum resistance entry is reported as “low^C”. The fH binding entry with N. gonorrhoeae F62 ΔIgtD [2] (setting [3]) and in the assay on N. gonorrhoeae F62 ΔIgtD [2] (summary Table 1) was “intermediate” throughout.
